{
  "source": "patent US8846115B2",
  "about": "“Anti-inflammatory cyclooxygenase inhibitors” (Metaproteomics, LLC, priority 2001, dated 2014)",
  "note": "Where two headings read alike, the source gives them in different places.",
  "data": [
    {"substance": "iso-alpha acids", "values": [
      {"measurement": "Solubility (aqueous solution that can be made)", "setting": "pH 7.5", "result": 20, "unit": "% aqueous solution"},
      {"measurement": "Solubility (aqueous solution that can be made)", "setting": "pH 9", "result": 30, "unit": "% aqueous solution"}
    ]}
  ]
}
